Measurements taken from the supplement of paper PMC5908809.

Legend:
[1] = system: normal primary NK cells, pool 2 (3 donors) (IL-2 2.5 ng/mL); assay: percent inhibition of viability; higher = more inhibition; settings: 72 h
[2] = system: YT (IL-2 2.5 ng/mL); assay: as above; settings: 72 h
[3] = system: normal primary NK cells, pool 3 (3 donors) (IL-2 2.5 ng/mL); assay: as above; settings: 72 h
[4] = system: normal primary NK cells, pool 1 (3 donors) (IL-2 2.5 ng/mL); assay: as above; settings: 72 h
[5] = system: KHYG-1 (IL-2 2.5 ng/mL); assay: as above; settings: 72 h
[6] = system: DERL-7 (IL-2 2.5 ng/mL); assay: as above; settings: 72 h
[7] = system: NKL (IL-2 2.5 ng/mL); assay: as above; settings: 72 h
[8] = system: KAI3 (IL-2 2.5 ng/mL); assay: as above; settings: 72 h
[9] = system: normal primary NK cells, pool 1 (3 donors), resting (IL-2 0 ng/mL); assay: as above; settings: 72 h
[10] = system: NK-YS (IL-2 2.5 ng/mL); assay: as above; settings: 72 h
[11] = system: IMC-1 (IL-2 20 ng/mL); assay: as above; settings: 72 h
[12] = system: SNK-6 (IL-2 2.5 ng/mL); assay: as above; settings: 72 h
[13] = system: NK-92 (IL-2 2.5 ng/mL); assay: as above; settings: 72 h
[14] = system: normal primary NK cells, pool 2 (3 donors) (IL-2 2.5 ng/mL); assay: drug sensitivity score (DSS) (DSS units); higher = more sensitive; extreme values may be limits of the assay; settings: 72 h
[15] = system: YT (IL-2 2.5 ng/mL); assay: as above; settings: 72 h
[16] = system: normal primary NK cells, pool 3 (3 donors) (IL-2 2.5 ng/mL); assay: as above; settings: 72 h
[17] = system: normal primary NK cells, pool 1 (3 donors) (IL-2 2.5 ng/mL); assay: as above; settings: 72 h
[18] = system: KHYG-1 (IL-2 2.5 ng/mL); assay: as above; settings: 72 h
[19] = system: DERL-7 (IL-2 2.5 ng/mL); assay: as above; settings: 72 h
[20] = system: NKL (IL-2 2.5 ng/mL); assay: as above; settings: 72 h
[21] = system: KAI3 (IL-2 2.5 ng/mL); assay: as above; settings: 72 h
[22] = system: normal primary NK cells, pool 1 (3 donors), resting (IL-2 0 ng/mL); assay: as above; settings: 72 h
[23] = system: NK-YS (IL-2 2.5 ng/mL); assay: as above; settings: 72 h
[24] = system: IMC-1 (IL-2 20 ng/mL); assay: as above; settings: 72 h
[25] = system: SNK-6 (IL-2 2.5 ng/mL); assay: as above; settings: 72 h
[26] = system: NK-92 (IL-2 2.5 ng/mL); assay: as above; settings: 72 h
[27] = system: normal NK cells expanded with K562-aAPC; assay: percent inhibition of viability; higher = more inhibition; settings: 72 h, IL-2 2.5 ng/mL
Description: (§1)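 Drug sensitivity and resistance testing on K562-aAPC-expanded normal NK cells: 5 concentrations (10-fold steps over a 10,000-fold range), 72 h at 37 °C, viability by CellTiter-Glo normalised to DMSO and benzethonium chloride controls; DSS from the fitted curve.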

[28] = system: normal NK cells expanded with K562-aAPC; assay: drug sensitivity score (DSS) (DSS units); higher = more sensitive; extreme values may be limits of the assay; settings: 72 h; IL-2 2.5 ng/mL
Description: as §1

Cc1cccc(-c2nn3c(c2-c2ccnc4ccc(C(N)=O)cc24)CCC3)n1 [Galunisertib] (max concentration tested 1000 nM)
percent inhibition of viability [%]
Settings | 0.1 nM | 1 nM | 10 nM | 100 nM | 1000 nM
[1] | -8.56 | -7.94 | -11.5 | -15 | -20.2
[2] | -3.06 | -2.63 | -3.58 | 1.78 | 1.58
[3] | -11 | -5.65 | -10 | -14.2 | -19.7
[4] | 0.38 | -7.01 | -9.1 | -2.92 | -15.2
[5] | -4.42 | -0.98 | -7.17 | 0.3 | -1.95
[6] | 5.62 | 1.68 | 4.85 | -1.77 | 1.92
[7] | -14.8 | -16.4 | -19.5 | -16.8 | -23.6
[8] | -4.52 | 0.48 | -2.74 | -1.09 | -2.65
[9] | -3.02 | -1.34 | -8.83 | 11.9 | 15
[10] | -4.82 | -4.05 | -5.75 | -3.29 | -5.06
[11] | -7.13 | -0.55 | -5.27 | -8.99 | -4.14
[12] | 4.83 | 20.7 | 0 | -0.11 | -19.9
[13] | 6.42 | -19.6 | -7 | -11.1 | -5.09
[27] | -0.13 | -4.95 | -1.88 | -4.21 | -16.8

Settings | drug sensitivity score
[14] | 0
[15] | 0
[16] | 0
[17] | 0
[18] | 0
[19] | 0
[20] | 0
[21] | 0
[22] | 1.02
[23] | 0
[24] | 0
[25] | 0
[26] | 0
[28] | 0

COC(=O)N[C@@H](C)CNc1nccc(-c2cn(C(C)C)nc2-c2cc(Cl)cc(NS(C)(=O)=O)c2F)n1 [Encorafenib] (max concentration tested 1000 nM)
percent inhibition of viability [%]
Settings | 0.1 nM | 1 nM | 10 nM | 100 nM | 1000 nM
[1] | -12.3 | -6.1 | -1.97 | -5.14 | -1.61
[2] | 4.02 | 1.12 | 4.21 | 0.09 | 19.3
[3] | -8.13 | -6.38 | -2.7 | -12.9 | -4.56
[4] | -4.01 | -8.97 | -7.94 | -18.4 | -8.33
[5] | 1.4 | 3.41 | 40.8 | 96.3 | 36
[6] | -4.45 | 1.39 | -5.31 | -20.4 | 2.89
[7] | -6.88 | -1.53 | -12.4 | -13 | 2.6
[8] | -3.35 | -4.73 | -1.44 | -5.19 | 35.6
[9] | 6.42 | -18.3 | -10.7 | -27.7 | 1.26
[10] | 0.75 | 0.97 | 2.64 | 4.64 | 15.7
[11] | -3.38 | -1.85 | -0.96 | 1.07 | 11.3
[12] | -4.51 | -10 | 13.8 | 2.67 | 3.42
[13] | 3.73 | -5.79 | 17.9 | 6.05 | 10.7
[27] | -0.52 | -2.88 | -3.45 | 0.31 | 8.45

Settings | drug sensitivity score
[14] | 0
[15] | 0.55
[16] | 0
[17] | 0
[18] | 16.3
[19] | 0
[20] | 0
[21] | 1.37
[22] | 0
[23] | 0.52
[24] | 0.04
[25] | 0
[26] | 0.17
[28] | 0
